Assay results: patent US8099262B2, “Estimation of clinical cut-offs” (priority 2004, dated 2012)
“Also recorded” adds a separate entry of the source. Like-named read-outs stand apart in the source and are kept apart here.

Assays:
Format in all cases: in vivo
HIV [1] = system: HIV; parameters: key to Modelled Lower Cutoff & Confidence Interval / Modelled Upper Cutoff & Confidence Interval: fold change (FC) matching VL drop at 20% and 80% loss of activity; conditions: preferred embodiment of linear regression
Description: In a preferred embodiment of the linear regression model, more factors are included in order to obtain a more refined prediction of viral load response. These factors include for example a sensitivity score per drug class in addition to the overall sensitivity score of the background treatment (cPSS), previous exposure to the drug (naïve (Yes/No), naïve to PIs, naïve to NRTI's, etc. . . . ). Furthermore, in the preferred embodiment, the fold change is transformed before inserting the figures into the model. The transformation to the fold change comprises a power-transformation ranging from FC^−3 to FC^1. In addition, a quadratic term in cPSS is preferably added.
The NRTI[naïve] value represents whether the patient is naïve to nucleoside RT inhibitors. If yes, value=1, if no, value=0. The PSS[NRTI} represents the phenotypic sensitivity score for NRTIs, i.e the number of active NRTIs in the background regimen for the patient.
Stage 3: Determine Fold change equivalent to VL drop at 20% and 80% loss of activity by inserting values for VL drop into the above equation and calculating FC. […]

HIV [2] = test: Logistic regression model of probability of success/failure as a function of baseline fold change resistance (clinical cut-offs)
Description: In such a method, Prob of success is preferably calculated by performing a logistic regression analysis using data from a clinical response dataset, wherein Prob of success is modelled according to the following equation: […]
(§1) The clinical outcome results (drop in viral load and response rate) were modelled as a function of baseline fold change (FC) as determined by virtual phenotype (see WO01/79540 and WO02/33402; also http://www.vircolab.com). The models applied were linear regression, logistic regression, and a classification tree. These models also took into account effects of the concomitant HIV drugs (PSS), baseline viral load (Baseline Log(V1)i) and, optionally, treatment history in order to avoid bias introduced by imbalances of important characteristics. From the models, a prediction of clinical outcome could be made at different levels of the baseline fold change resistance.
In the logistic regression, the proposed equation was the following: […]
However, by binning the viral load into successes and failures, part of the information of the continuous variable viral load is lost. Estimates are also corrected for covariates as for linear regression.
(§2) The maximum effect was defined as the treatment effect at fold change 1, and the minimum effect was defined as the treatment effect at a very high fold change (i.e. when the curve reached a plateau). The effect range was then the difference between the maximum effect and the minimum effect.
The lower and higher cutoffs are defined as the fold change associated with an expected 20% and 80% decrease respectively of the reference activity of the drug within the regimen.

HIV [3] = system: HIV; parameters: key to effect range (difference between maximum and minimum effect, log viral load): log viral load drop; max effect (FC 1) minus min effect (plateau); Linear Regression Higher CO / Linear Regression Lower CO: unit not given here
Description: Databases of studies for patients with tenofovir containing regimens and consisting of patient baseline demographic characteristics, clinical outcome results with viral load and resistance data (Fold change), were retrieved and remapped according to a common structure allowing a meta-analysis. The structure consisted of baseline sequence, viral load data set, viral load measurements and sampling dates (for example viral load within 3 months of starting new regimen and viral load assessment 8 and/or 24 weeks after beginning new regimen), CD4+ data set which contains CD4+ counts and sampling dates, resistance data set containing the fold changes to different antivirals and sampling dates; patient data set with patient information such as age, gender, race, treatment history; treatment data set with drug regimens, start and stop dates, doses, formulations, frequency of intake, regimen changes after resistance tests. The structure of such a clinical data base can be seen in FIG. 1a.
The viral load response data includes censored (<400 copies/ml) values. Parameters of the underlying uncensored distribution were estimated by maximum likelihood estimation in SAS (proc lifereg). The viral load response data are corrected for baseline viral load and cPSS.
as §1, with “The” for “The clinical outcome results (drop in viral load and response rate) were modelled as a function of baseline fold change (FC) as determined by virtual phenotype (see WO01/79540 and WO02/33402; also http://www.vircolab.com). The”
In the linear regression model, the proposed equation was the following: LogVL dropi=β0+β1*Baseline Log(V1)i+β2*PSSi+β3*(1/FC)i+ξi where i represented the patient, β0 the intercept, β1, β2 and β3 coefficients indicated the increase in log viral load drop per unit increase of respectively the baseline log VL, the number of sensitive drugs in the background regimen and the inverse of the baseline fold change. ξi was a random error term indicating the deviation of the patient from the value predicted by the model. Interactions between all the factors were evaluated and other baseline characteristics, i.e treatment history, were added if relevant.
When viral load results under the detection limits are obtained, biases could be introduced if the detection limit values are considered when calculating viral load drops and using those in the linear regression model. To avoid this, censoring needed to be taken into account and therefore the PROC LIFEREG facility in the SAS package was employed.
Clinical responses were predicted in the models developed in previous step 2. […] In order to determine the fold changes at which clinically relevant diminished clinical responses can be observed, three definitions of clinical cut-offs were considered:
as §2

[4] = Definition 2, Subgroup 1: PSS = 2, baseline Log (VL) = 4
[5] = Definition 2, Subgroup 2: PSS = 0, baseline Log (VL) = 4
[6] = Definition 2, Subgroup 3: PSS = 2, baseline Log (VL) = 5
[7] = Definition 3, Subgroup 1: PSS = 2, baseline Log (VL) = 4
[8] = Definition 3, Subgroup 2: PSS = 0, baseline Log (VL) = 4
[9] = Definition 3, Subgroup 3: PSS = 2, baseline Log (VL) = 5
[10] = Definition 1, Subgroup 2: PSS = 0, baseline Log (VL) = 4
[11] = Definition 1, Subgroup 3: PSS = 2, baseline Log (VL) = 5
[12] = Definition 2, Overall (whole population)
[13] = Definition 2, two active drugs besides the drug, baseline Log(VL) of 4
[14] = preliminary linear regression analysis, virologic response at 8 weeks

SMILES: CC(C)OC(=O)OCOP(=O)(CO[C@H](C)Cn1cnc2c(N)ncnc21)OCOC(=O)OC(C)C.O=C(O)/C=C/C(=O)O [TDF]
- Modelled Lower Cutoff & Confidence Interval (HIV [1]): 1.0
- Modelled Upper Cutoff & Confidence Interval (HIV [1]): 2.0
- Logistic Regression Higher CO (HIV [2]; [4]): 3.81
- Logistic Regression Lower CO (HIV [2]; [4]): 1.2
- Logistic Regression Higher CO (HIV [2]; [5]): 3.36
- Logistic Regression Lower CO (HIV [2]; [5]): 1.16
- Logistic Regression Higher CO (HIV [2]; [6]): 3.4
- Logistic Regression Lower CO (HIV [2]; [6]): 1.17
- Logistic Regression Lower CO (HIV [2]; Definition 3, Overall): 1.2
- Logistic Regression Higher CO (HIV [2]; [7]): 3.81
- Logistic Regression Lower CO (HIV [2]; [7]): 1.2
- Logistic Regression Higher CO (HIV [2]; [8]): 3.36
- Logistic Regression Lower CO (HIV [2]; [8]): 1.2
- Logistic Regression Higher CO (HIV [2]; [9]): 3.4
- Logistic Regression Lower CO (HIV [2]; [9]): 1.2
- Linear Regression Lower CO (clinical cut-off, fold change) (HIV [3]; Definition 1, Subgroup 1: PSS = 2, baseline Log (VL) = 4): 3.73
- Linear Regression Higher CO (clinical cut-off, fold change) (HIV [3]; Definition 1, Subgroup 1: PSS = 2, baseline Log (VL) = 4, listed as Tenofovir): >assay
- Linear Regression Higher CO (clinical cut-off, fold change) (HIV [3]; Definition 1, Subgroup 1: PSS = 2, baseline Log (VL) = 4, listed as tenofovir): No higher cut-off could be derived; also recorded: >assay
- Linear Regression Higher CO (HIV [3]; [10]): 3.8
- Linear Regression Lower CO (HIV [3]; [10]): 1.68
- Linear Regression Higher CO (HIV [3]; [11]): >assay
- Linear Regression Lower CO (HIV [3]; [11]): >assay
- Linear Regression Higher CO (HIV [3]; [12]): 5
- Linear Regression Lower CO (HIV [3]; [12]): 1.25
- Linear Regression Higher CO (HIV [3]; [4]): 5
- Linear Regression Lower CO (HIV [3]; [4]): 1.25
- Linear Regression Higher CO (HIV [3]; [5]): 5
- Linear Regression Lower CO (HIV [3]; [5]): 1.25
- Linear Regression Higher CO (HIV [3]; [6]): 5
- Linear Regression Lower CO (HIV [3]; [6]): 1.25
- drop in log viral load at fold change 1 (HIV [3]; [13]): −1.48
- drop in log viral load at the maximum (asymptotic) fold change (HIV [3]; [13]): −0.28
- effect range (difference between maximum and minimum effect, log viral load) (HIV [3]; [13]): 1.2
- Linear Regression Higher CO (HIV [3]; Definition 3, Overall): 5
- Linear Regression Lower CO (HIV [3]; Definition 3, Overall): 1.1
- Linear Regression Higher CO (HIV [3]; [7]): 5
- Linear Regression Lower CO (HIV [3]; [7]): 1.1
- Linear Regression Higher CO (HIV [3]; [8]): 5
- Linear Regression Lower CO (HIV [3]; [8]): 1.1
- Linear Regression Higher CO (HIV [3]; [9]): 5
- Linear Regression Lower CO (HIV [3]; [9]): 1.1
- VIROLOGIC RESPONSE Baseline FC for 80% REDUCTION of response (upper cutoff) (HIV [3]; preliminary linear regression analysis, definition 2): 2.5
- VIROLOGIC RESPONSE 20% REDUCTION (fold change, preliminary VirtualPhenotype Clinical Cutoff) (HIV [3]; [14]): 1.2
- VIROLOGIC RESPONSE 80% REDUCTION (fold change, preliminary VirtualPhenotype Clinical Cutoff) (HIV [3]; [14]): 2.5
- lower cut-off derived from the Table (HIV [3]; summary over models, 2 active drugs besides the drug, baseline log(VL) of 4): 1.2
